Test system: 328373-195-R-J1-PDC complex spheroids, viability % test/control
Assay: Anticancer human tumor 328373-195-R-J1-PDC patient-derived head and neck squamous carcinoma cell line growth inhibition [CLK]
Details: for IC50: curve of first compound; for viability, T/C: stronger effect = lower value; active = viability on the fitted dose curve at most 10% of control; inactive = the rest
Method in brief: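 Patient-derived tumor cells grown as complex spheroids with HUVEC endothelial cells and mesenchymal stem cells, treated with drug combinations. Concentrations descend in half-log steps from near clinical Cmax, or from 10 microM if Cmax unknown.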

[1] = second compound 0.0316 µM, first compound 0.0316 µM
[2] = second compound 0.0316 µM, first compound 0.1 µM
[3] = second compound 0.0316 µM, first compound 0.316 µM
[4] = second compound 0.0316 µM, first compound 1 µM
[5] = second compound 0.0316 µM, first compound 3.16 µM
[6] = second compound 0.0316 µM, first compound 10 µM
[7] = second compound 0.1 µM, first compound 0.0316 µM
[8] = second compound 0.1 µM, first compound 0.1 µM
[9] = second compound 0.1 µM, first compound 0.316 µM
[10] = second compound 0.1 µM, first compound 1 µM
[11] = second compound 0.1 µM, first compound 3.16 µM
[12] = second compound 0.1 µM, first compound 10 µM
[13] = second compound 0.316 µM, first compound 0.0316 µM
[14] = second compound 0.316 µM, first compound 0.1 µM
[15] = second compound 0.316 µM, first compound 0.316 µM
[16] = second compound 0.316 µM, first compound 1 µM
[17] = second compound 0.316 µM, first compound 3.16 µM
[18] = second compound 0.316 µM, first compound 10 µM
[19] = second compound 1 µM, first compound 0.0316 µM
[20] = second compound 1 µM, first compound 0.1 µM
[21] = second compound 1 µM, first compound 0.316 µM
[22] = second compound 1 µM, first compound 1 µM
[23] = second compound 1 µM, first compound 3.16 µM
[24] = second compound 1 µM, first compound 10 µM
[25] = second compound 3.16 µM, first compound 0.0316 µM
[26] = second compound 3.16 µM, first compound 0.1 µM
[27] = second compound 3.16 µM, first compound 0.316 µM
[28] = second compound 3.16 µM, first compound 1 µM
[29] = second compound 3.16 µM, first compound 3.16 µM
[30] = second compound 3.16 µM, first compound 10 µM
[31] = second compound 10 µM, first compound 0.0316 µM
[32] = second compound 10 µM, first compound 0.1 µM
[33] = second compound 10 µM, first compound 0.316 µM
[34] = second compound 10 µM, first compound 1 µM
[35] = second compound 10 µM, first compound 3.16 µM
[36] = second compound 10 µM, first compound 10 µM
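Note: spheroids exposed to the agents for 7 days.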

CC(=O)O[C@H]1C(=O)[C@@]2(C)[C@H]([C@H](OC(=O)c3ccccc3)[C@]3(O)C[C@H](OC(=O)[C@H](O)[C@@H](NC(=O)c4ccccc4)c4ccccc4)C(C)=C1C3(C)C)[C@]1(OC(C)=O)CO[C@@H]1C[C@@H]2O + CNC(=O)c1ccc(Nc2nc(OC3CCCC3)c3c(-c4ccc5nc(C)oc5c4)c[nH]c3n2)c(OC)c1
< 31.6 nM: IC50 (second compound 0.0316 µM) | IC50 (second compound 0.1 µM) | IC50 (second compound 0.316 µM) | IC50 (second compound 1 µM) | IC50 (second compound 3.16 µM) | IC50 (second compound 10 µM)
inactive: viability, T/C [1] 11.7% | viability, T/C [2] 7.56% | viability, T/C [3] 14% | viability, T/C [4] 13.7% | viability, T/C [5] 12.7% | viability, T/C [6] 22% | viability, T/C [7] 20.2% | viability, T/C [8] 22.9% | viability, T/C [9] 18.8% | viability, T/C [10] 26.1% | viability, T/C [11] 25.2% | viability, T/C [12] 29.1% | viability, T/C [13] 21.1% | viability, T/C [14] 23.5% | viability, T/C [15] 24.7% | viability, T/C [16] 29.3% | viability, T/C [17] 32.1% | viability, T/C [18] 29.8% | viability, T/C [19] 21% | viability, T/C [20] 24% | viability, T/C [21] 27% | viability, T/C [22] 30.8% | viability, T/C [23] 36.7% | viability, T/C [24] 28% | viability, T/C [25] 22.2% | viability, T/C [26] 27.2% | viability, T/C [27] 29.8% | viability, T/C [28] 32.7% | viability, T/C [29] 37.1% | viability, T/C [30] 33.9% | viability, T/C [31] 20% | viability, T/C [32] 28.6% | viability, T/C [33] 30.5% | viability, T/C [34] 36.7% | viability, T/C [35] 42.3% | viability, T/C [36] 36%

CCc1c2c(nc3ccc(O)cc13)-c1cc3c(c(=O)n1C2)COC(=O)[C@]3(O)CC + CNC(=O)c1ccc(Nc2nc(OC3CCCC3)c3c(-c4ccc5nc(C)oc5c4)c[nH]c3n2)c(OC)c1
< 3.16 nM: IC50 (second compound 0.0316 µM) | IC50 (second compound 0.1 µM) | IC50 (second compound 0.316 µM) | IC50 (second compound 1 µM) | IC50 (second compound 3.16 µM) | IC50 (second compound 10 µM)
inactive: viability, T/C (second compound 10 µM, first compound 0.00316 µM) 10.2%
active: viability, T/C (second compound 0.0316 µM, first compound 0.00316 µM) 7.71% | viability, T/C (second compound 0.0316 µM, first compound 0.01 µM) 1.63% | viability, T/C [1] 2.84% | viability, T/C [2] 0.67% | viability, T/C [3] 0.38% | viability, T/C [4] 0.09% | viability, T/C (second compound 0.1 µM, first compound 0.00316 µM) 7.73% | viability, T/C (second compound 0.1 µM, first compound 0.01 µM) 1.04% | viability, T/C [7] 2.54% | viability, T/C [8] 0.41% | viability, T/C [9] 1.87% | viability, T/C [10] 2.57% | viability, T/C (second compound 0.316 µM, first compound 0.00316 µM) 7.15% | viability, T/C (second compound 0.316 µM, first compound 0.01 µM) 3.14% | viability, T/C [13] 1.9% | viability, T/C [14] 0.39% | viability, T/C [15] 1.85% | viability, T/C [16] 0.68% | viability, T/C (second compound 1 µM, first compound 0.00316 µM) 5.68% | viability, T/C (second compound 1 µM, first compound 0.01 µM) 1.49% | viability, T/C [19] 1.06% | viability, T/C [20] 0.86% | viability, T/C [21] 0.2% | viability, T/C [22] 1.91% | viability, T/C (second compound 3.16 µM, first compound 0.00316 µM) 9.03% | viability, T/C (second compound 3.16 µM, first compound 0.01 µM) 2.69% | viability, T/C [25] 1.66% | viability, T/C [26] 0.35% | viability, T/C [27] 1.13% | viability, T/C [28] 1.82% | viability, T/C (second compound 10 µM, first compound 0.01 µM) 1.94% | viability, T/C [31] 1.92% | viability, T/C [32] 0.95% | viability, T/C [33] 2.93% | viability, T/C [34] 1.05%

COc1cccc2c1C(=O)c1c(O)c3c(c(O)c1C2=O)CC(O)(C(=O)CO)CC3OC1CC(N)C(O)C(C)O1 (stereo unspecified) + CNC(=O)c1ccc(Nc2nc(OC3CCCC3)c3c(-c4ccc5nc(C)oc5c4)c[nH]c3n2)c(OC)c1
< 31.6 nM: IC50 (second compound 0.0316 µM) | IC50 (second compound 0.1 µM) | IC50 (second compound 0.316 µM) | IC50 (second compound 1 µM) | IC50 (second compound 3.16 µM) | IC50 (second compound 10 µM)
inactive: viability, T/C [1] 12.6% | viability, T/C [25] 11.5% | viability, T/C [31] 12.1%
active: viability, T/C [2] 4.2% | viability, T/C [3] 0.6% | viability, T/C [4] 0.17% | viability, T/C [5] 0.12% | viability, T/C [6] 3.04% | viability, T/C [7] 8.2% | viability, T/C [8] 3.67% | viability, T/C [9] 0.55% | viability, T/C [10] 0.13% | viability, T/C [11] 0.09% | viability, T/C [12] 4.34% | viability, T/C [13] 8.9% | viability, T/C [14] 3.98% | viability, T/C [15] 0.5% | viability, T/C [16] 0.07% | viability, T/C [17] 0.07% | viability, T/C [18] 1.96% | viability, T/C [19] 8.51% | viability, T/C [20] 2.74% | viability, T/C [21] 1.07% | viability, T/C [22] 0.06% | viability, T/C [23] 0.07% | viability, T/C [24] 4.59% | viability, T/C [26] 3.82% | viability, T/C [27] 0.22% | viability, T/C [28] 0.06% | viability, T/C [29] 0.93% | viability, T/C [30] 2.69% | viability, T/C [32] 1.9% | viability, T/C [33] 0.16% | viability, T/C [34] 0.1% | viability, T/C [35] 0.6% | viability, T/C [36] 2.6%

Source: PubChem BioAssay AID2060620 (Molecular Pharmacology Branch, DTP, NCI, 2025)
